From PMC6014988, “Precision therapeutic targeting of human cancer cell motility” (Nature Communications, 2018)

Assays:
[1] = system: human prostate cells (PC3, PC3-M, 1532NPTX, 1542NPTX, 1532CPTX, 1542CPTX); test: Cell invasion, panel of human prostate cells; type: cell-based
Protocol: Human prostate metastatic cells (PC3, PC3-M), and HPV-transformed normal (1532NPTX, 1542NPTX) and primary cancer (1532CPTX, 1542CPTX) cells, were treated with 10 µM genistein (G), KBU2046 (46), or vehicle (CO), and after 3 days, cell invasion was measured. Values are mean ± SEM of a single experiment in replicates of N = 4, with similar findings in multiple separate experiments (also N = 4). c Single-cell migration. Cell migration was measured after treatment for 3 days with 10 µM KBU2046 or vehicle (control). Values are mean ± SEM of a single experiment in replicates of N = 24, with similar findings in a separate experiment (also N = 24). *Denotes Student’s t-test P value <0.05, compared to controls. d Human cord blood hematopoietic stem cell colony formation assay. Values are the mean ± SD number of total, CFU-GM, CFU-GEMM, or BFU-E colonies at 14 days after treatment with KBU2046, from a single experiment in replicates of N = 2. e Induction of estrogen-responsive genes. Values are the mean ± SD of a single experiment, with similar results seen in a separate experiment, both in replicates of N = 2
Boyden chamber cell invasion assays were performed as previously described by us[30], using either denatured collagen (BD Biosciences) or type IV human collagen (BD Biosciences), with all experiments repeated, each in N = 4 replicates. […]

[2] = Schiff-base formation with L-alanine, NMR; type: physicochemical; details: 27°C (18 h) then 37°C, total 72 hours
Text: Response to Reviewers' comments:
We wish to thank reviewers for their time and thoughtful review. Please find below point-by-point responses to reviewer queries. Associated changes in the manuscript are underlined.
Reviewer (your email indicates #3, the review letter indicates #4):
1. While Schiff-base formation may be reversible, the reverse reaction may not occur during the life of the protein. Considering KBU2046’s binding affinity is proposed to be driven by a single H-bonding interaction with the carbonyl in question, studies should be conducted to ensure the formation of a Schiff base is not occurring.
Response. To specifically examine Schiff-base formation, we incubated KBU2046 with L-alanine at 27°C (18 h) and then 37°C for a total 72 hours, and observed no change in 1H or 13C NMR spectra of drug from the original observed spectra for KBU2046 alone. This exposure […]
product in the presence of a biologically relevant, representative primary amine. These studies were conducted by co-author Karl Scheidt, Professor of chemistry at Northwestern University.
Attached to this letter is a detailed description of the experiment.
These new experimental findings are concordant with our other findings presented in the manuscript. […]

1542CPTX = test: Three-day MTT cell growth inhibition assay, 1542CPTX; type: cell-based, human; details: Homo sapiens, 72 h, 3 days
[3] = as above; type: cell-based, human; details: human, 1542CPTX cells
[4] = system: 284 kinases and 20 phosphatases; test: KinaseProfiler and PhosphataseProfiler assay platforms; type: biochemical
Text: There were two initial false positives (for a false positive rate of 0.4%), that were subsequently found to be negative in a dedicated follow up analysis. Specific and important negative findings include MKK4, p38 MAPK (α, β, γ and δ […]
by competing for phospho-acceptor binding.
Kinase assay system #2. The Kinex™ kinase assay system (Kinexus Proteomics Company).
This platform uses recombinant human protein kinases expressed in an insect expression system, thus allowing an avenue for post-translational modification. Also, this platform measures inhibition of ATP binding. This platform putatively measured 200 different kinases, and we […]
tested KBU2046 at 1 and 10 μM. […] There were two […]
important technical issues. First, at 10 μM KBU2046 interfered with the colorimetric-based […]
However, while considering the above factors, this screen was informative for a number of […]
function by competing for ATP binding in the active site.
Kinase assay system #3. KinaseProfiler™ and PhosphataseProfiler™ assay platforms (Millipore). This platform is radiometric-based (considered gold standard). It measures competition with respect to ATP for kinases and substrate protein for phosphatases. Most proteins were expressed via an insect-based system, and it evaluates a panel of 284 kinases and 20 phosphatases. There were two initial false positives, for a false positive rate of 0.7%, but both […]

MKK4 = MKK4 (Homo sapiens, UniProt P45985); test: MKK4 in vitro kinase assay; type: biochemical
Chain of MKK4 (P45985 whole entry): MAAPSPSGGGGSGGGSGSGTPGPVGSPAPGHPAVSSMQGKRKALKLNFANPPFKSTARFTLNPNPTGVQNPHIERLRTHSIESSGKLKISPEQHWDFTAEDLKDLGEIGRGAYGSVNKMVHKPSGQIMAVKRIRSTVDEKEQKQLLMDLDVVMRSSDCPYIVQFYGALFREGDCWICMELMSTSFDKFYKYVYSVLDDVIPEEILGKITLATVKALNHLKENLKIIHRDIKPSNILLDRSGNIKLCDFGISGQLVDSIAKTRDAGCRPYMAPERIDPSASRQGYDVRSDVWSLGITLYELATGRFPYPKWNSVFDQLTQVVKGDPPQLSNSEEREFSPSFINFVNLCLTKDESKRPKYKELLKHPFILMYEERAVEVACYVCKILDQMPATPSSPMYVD
Protocol: MEK4/MKK4/MAP2K4 in vitro kinase assay was performed as described by us[45].
Supplementary Figure 9. […] (a) Depiction of […]
established MKK4 pathway regulating human PCa cell metastasis. […]
to MKK4, as measured by fluorescence-based thermal shift assay. Values are the mean±SD (of N=2 replicates) increase in melting temperature (ΔTm) of purified recombinant MKK4 induced by the indicated concentrations of KBU2046 or genistein. […]
in an in vitro kinase assay. The indicated concentrations of KBU2046 were added to recombinant activated MKK4, and its ability to phosphorylate kinase dead p38α MAPK (K53A) was measured by Western blot for total (p38 MAPK) and phosphorylated (pp38 MAPK) forms of […]
HSP27 in cells. PC3-M cells were pre-treated for 24 hours with 50 µM KBU2046 or genistein, as indicated, then with TGFβ, and Western blot performed. All findings are from a single experiment, with similar findings in identical separate experiments, repeated at least once. […]

Which cell invasion ([1]; 10 µM, 3 days) does the source give for `O=C1c2ccccc2OCC1c1ccc(F)cc1` (racemic) [KBU2046, (±)-3(4-fluorophenyl)chroman-4-one] here?
Its cell invasion is “inhibits cell invasion with efficacy equal-to-or-greater-than that of genistein”.

What about the effect upon invasion ([1]; after 3 days treatment of cells) of the same compound?
Its effect upon invasion is 50%.

What about the “change in 1H or 13C NMR spectra (Schiff-base formation)” value [2] of the same compound?
The value was “no change”.

And the IC20 (1542CPTX)?
The IC20 was > 50 µM.

And the IC50 (1542CPTX)?
The IC50 was > 50 µM.

And the viability at 3 days, 50 µM [3]?
Its viability at 3 days, 50 µM is 104%.

What about the “inhibition of phosphatase activity” value ([4]; 20 phosphatases) of the same compound?
The value was “No evidence supports inhibition”.

What about the “inhibition of kinase activity” value ([4]; radiometric, 284 kinases) of the same compound?
Its value is “no evidence that KBU2046 inhibits”.

What about the “inhibition of MKK4 kinase activity” value (MKK4) of the same compound?
The value was “nor inhibit its kinase activity”.
